The record followed here is patent publication US6680330B2, “Rapamycin dialdehydes” (Wyeth, priority 2001, dated 2004).

Common to all, as to type: cell-based
Experiment [1] relates to A431 (vulva epidermoid origin) tumor cell line. Nature of the experiment: Antineoplastic activity, tumor cell growth inhibition (sulforhodamine B), A431. The settings on record: 48 hours; for Antineoplastic Activity IC50: A431 cells. An excerpt: (§1) Antineoplastic activity for the compounds of this invention was confirmed by evaluating the antineoplastic activity of representative compounds of this invention (Examples 1-5) against six tumor cell lines in vitro. Briefly, tumor cells from six cell lines were placed in wells of a 96 well microtiter plate. The following tumor cell lines were used: 3T3 (ovarian), 3T3/H2N (ovarian—resistant to cis-platin), A431 (vulva epidermoid origin), SW620 (colon), SKBR3 (breast), and MDA-435 (breast). The tumors cells were grown in the presence of serial dilutions of the compound to be evaluated for 48 hours, and cell growth determined using a colorimetric procedure (sulforhrodamine B). The inhibition of growth was calculated compared to the number of cells at the time of test compound addition.

The test system of experiment [2] is 3T3/H2N (ovarian—resistant to cis-platin) tumor cell line. Nature of the experiment: Antineoplastic activity, tumor cell growth inhibition (sulforhodamine B), 3T3/H2N. The conditions noted are these: 3T3/H2N cells, 48 hours.
Source text: as §1

Experiment [3] concerns SW620 (colon) tumor cell line. Nature of the experiment: Antineoplastic activity, tumor cell growth inhibition (sulforhodamine B), SW620. The settings on record: 48 hours; for Antineoplastic Activity IC50: SW620 cells.
Source text: as §1

Experiment [4] concerns MDA-435 (breast) tumor cell line. Nature of the experiment: Antineoplastic activity, tumor cell growth inhibition (sulforhodamine B), MDA-435. The settings on record: MDA435 cells, 48 hours.
Source text: as §1

Experiment [5] concerns SKBR3 (breast) tumor cell line. Nature of the experiment: Antineoplastic activity, tumor cell growth inhibition (sulforhodamine B), SKBR3. The settings on record: 48 hours; for Antineoplastic Activity IC50: SKBR3 cells.
Source text: as §1

The subject of experiment [6] is 3T3 (ovarian) tumor cell line. Nature of the experiment: Antineoplastic activity, tumor cell growth inhibition (sulforhodamine B), 3T3. The settings on record: 48 hours; for Antineoplastic Activity IC50: 3T3 cells.
Source text: as §1

Another experiment concerns SH-SY5Y cells. Nature of the experiment: Neurite outgrowth (neuroregeneration) test in SH-SY5Y cells. The conditions noted are these: aphidicolin 5 days, mean ± SEM. From the text: The neuroregeneration activity for the compounds of this invention was confirmed in a standard pharmacological test procedure by evaluating rapamycin dialdehyde (Example 1) and rapamycin 29-enol (Example 2), as representative compounds of this invention, against SH-SY5Y cells in vitro [Gold et al., Exp Neurol 147: 269-278, 1997]. Briefly, SH-SY5Y cells were placed in 6-well plate treated with aphidicolin for 5 days followed by the test compounds using 6-well plates. For controls, wells were untreated, or treated with nerve growth factor (NGF) alone. Test wells were treated with NGF plus Example 1 and Example 2, or rapamycin. Cells were photographed at 168 hours. Analysis of neuritic lengths was performed on photographic prints using a Houston Instrument HI-PAD digitizing tablet connected to an IBM XT computer with appropriate software (Bioquant IV, R&M Biometrics, Nashville, Tenn.). Mean values for axonal areas were compared using by ANOVA (STATVIEW, Abacus Concepts, Inc., Berkeley, Calif.). The following table summarizes the results that were obtained.

Converted amounts (≈) assume the structure as drawn.

Take “42-O-(2-Hydroxy)Ethyl Rapamycin 29-enol [Example V]”: the “Antineoplastic Activity IC50” value in experiment [1] was over 5 µg/mL; in experiment [2] it was 4.96 µg/mL; in experiment [3], over 5 µg/mL; in experiment [4], over 5 µg/mL; in experiment [5], 2.69 µg/mL; in experiment [6], over 5 µg/mL.
As to Rapamycin 29-Enol [Example II], the “Antineoplastic Activity IC50” value in experiment [1], in experiment [2], in experiment [3], in experiment [4], in experiment [5] and in experiment [6] was over 5 µg/mL throughout. Moreover, in the experiment with SH-SY5Y cells (test compound plus NGF), the “Mean Neurite Length after 168 h” value is recorded as 239.7 ± 10.0 (n = 155) μm.
On to “42-O-(2-Hydroxy)Ethyl Rapamycin Dialdehyde [IV]”, for which the “Antineoplastic Activity IC50” value in experiment [1] was 2.64 µg/mL; in experiment [2], 0.72 µg/mL; in experiment [3], 3.04 µg/mL; in experiment [4], 1.1 µg/mL; in experiment [5], 0.36 µg/mL; in experiment [6], 1.5 µg/mL.
As to “NGF: nerve growth factor, used alone as control and together with test compounds”, the “Mean Neurite Length after 168 h” value with SH-SY5Y cells (NGF alone) was 196.5 ± 7.7 (n = 112) μm.
The IC50 is the midpoint of a concentration-inhibition curve. Low values mean greater potency in that assay, high ones weaker potency in that assay. With `CO[C@@H](C[C@@H]1CC[C@@H](C)[C@](O)(C(=O)C(=O)N2CCCC[C@H]2C(=O)OC(CC(=O)[C@H](C)/C=C(\C)[C@@H](O)[C@@H](OC)C(=O)[C@H](C)C[C@H](C)/C=C/C=O)[C@H](C)C[C@@H]2CC[C@@H](O)[C@H](OC)C2)O1)/C(C)=C/C=O` (stereo partly drawn) [Example I, Rapamycin Dialdehyde], the half-inhibitory concentration (IC50) in experiment [1] (Homo sapiens, A-431, A431 cells) was 0.91 µg/mL (≈ 0.962 µM); in experiment [2], 0.68 µg/mL (≈ 0.719 µM); in experiment [3] (Homo sapiens, SW-620, SW620 cells) it was 1.41 µg/mL (≈ 1.49 µM); in experiment [4] it was 1.23 µg/mL (≈ 1.3 µM); in experiment [5] (Homo sapiens, SK-BR-3, SKBR3 cells), 0.52 µg/mL (≈ 0.55 µM); in experiment [6] (Mus musculus, NIH3T3, 3T3 cells) it was 0.72 µg/mL (≈ 0.761 µM). Besides, in the experiment on SH-SY5Y cells (test compound plus NGF), the “Mean Neurite Length after 168 h” value is listed as 229.8 ± 9.5 (n = 141) μm.
